Where two headings read alike, the source gives them in different places.
Tests used:
human D4.4 = human D4.4 (Homo sapiens (Human), UniProt P21917); assay: Radioligand competition binding vs. [3H]-(R)-(+)-7-OH-DPAT, hD4R; settings: HEK293 cells stably expressing hD4R, read-out: D4R Ki ± SEM
human D2LR = human D2LR (Homo sapiens (Human), UniProt P14416); assay: Radioligand competition binding vs. [3H]-(R)-(+)-7-OH-DPAT, hD2R
human D3R = human D3R (Homo sapiens (Human), UniProt P35462); assay: Radioligand competition binding vs. [3H]-(R)-(+)-7-OH-DPAT, hD3R; settings: for D4R/D3R / D2R/D3R: ratio of Ki; for D2R/D3R: D3R selectivity over D2R
human D3R, sequence (P35462 whole entry): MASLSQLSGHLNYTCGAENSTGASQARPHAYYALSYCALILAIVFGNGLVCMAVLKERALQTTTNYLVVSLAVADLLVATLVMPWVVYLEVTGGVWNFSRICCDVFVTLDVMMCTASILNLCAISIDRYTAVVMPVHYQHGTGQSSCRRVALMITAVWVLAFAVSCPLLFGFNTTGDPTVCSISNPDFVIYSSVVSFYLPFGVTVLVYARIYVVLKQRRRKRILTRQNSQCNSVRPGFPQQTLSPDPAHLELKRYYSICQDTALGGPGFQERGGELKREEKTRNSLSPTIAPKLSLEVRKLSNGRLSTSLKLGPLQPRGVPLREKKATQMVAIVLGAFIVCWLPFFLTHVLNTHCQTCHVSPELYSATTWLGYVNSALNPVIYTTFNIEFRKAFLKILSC

hD1R = hD1R (Homo sapiens (Human), UniProt P21728); assay: Off-target competition binding vs. [3H]-SCH23390, hD1R; settings: read-out: hD1R Ki ± SEM
hD1R, sequence (P21728 whole entry): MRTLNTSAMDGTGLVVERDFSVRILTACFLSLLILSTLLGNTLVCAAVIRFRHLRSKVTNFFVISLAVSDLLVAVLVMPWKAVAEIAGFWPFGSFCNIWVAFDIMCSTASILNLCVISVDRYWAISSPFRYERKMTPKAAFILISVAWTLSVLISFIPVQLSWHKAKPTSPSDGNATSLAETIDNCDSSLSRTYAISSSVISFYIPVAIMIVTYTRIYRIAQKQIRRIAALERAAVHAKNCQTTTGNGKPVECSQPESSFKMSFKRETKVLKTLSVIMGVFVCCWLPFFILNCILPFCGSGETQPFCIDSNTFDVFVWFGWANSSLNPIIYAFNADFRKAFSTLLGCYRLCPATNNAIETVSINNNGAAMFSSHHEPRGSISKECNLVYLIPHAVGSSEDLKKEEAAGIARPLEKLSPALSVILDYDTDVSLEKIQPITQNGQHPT

hμOR = hμOR (Homo sapiens (Human), UniProt P35372); assay: Off-target competition binding vs. [3H]-DAMGO, hμOR; settings: read-out: hμOR Ki ± SEM
hμOR, sequence (P35372 whole entry): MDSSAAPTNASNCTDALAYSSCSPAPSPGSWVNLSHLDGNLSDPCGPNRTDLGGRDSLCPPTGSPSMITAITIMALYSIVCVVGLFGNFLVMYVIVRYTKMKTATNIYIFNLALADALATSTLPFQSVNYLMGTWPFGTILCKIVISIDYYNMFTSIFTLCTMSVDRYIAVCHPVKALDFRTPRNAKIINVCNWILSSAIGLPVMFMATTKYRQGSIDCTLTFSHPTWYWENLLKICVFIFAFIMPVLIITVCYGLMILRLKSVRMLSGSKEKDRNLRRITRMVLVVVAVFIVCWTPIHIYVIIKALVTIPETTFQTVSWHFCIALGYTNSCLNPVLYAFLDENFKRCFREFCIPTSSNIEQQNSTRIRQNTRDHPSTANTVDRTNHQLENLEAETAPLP

hD3R = hD3R (Homo sapiens (Human), UniProt P35462); assay: Competition binding vs. antagonist [3H]-N-methylspiperone, D3R; settings: read-out: hD3R Ki ± SEM; vs. antagonist [3H]-N-methylspiperone
hD3R, sequence (P35462 whole entry): as the sequence (P35462 whole entry) above

hD2LR = hD2LR (Homo sapiens (Human), UniProt P14416); assay: Competition binding vs. antagonist [3H]-N-methylspiperone, D2R; settings: read-out: hD2LR Ki ± SEM
hD2LR, sequence (P14416 whole entry): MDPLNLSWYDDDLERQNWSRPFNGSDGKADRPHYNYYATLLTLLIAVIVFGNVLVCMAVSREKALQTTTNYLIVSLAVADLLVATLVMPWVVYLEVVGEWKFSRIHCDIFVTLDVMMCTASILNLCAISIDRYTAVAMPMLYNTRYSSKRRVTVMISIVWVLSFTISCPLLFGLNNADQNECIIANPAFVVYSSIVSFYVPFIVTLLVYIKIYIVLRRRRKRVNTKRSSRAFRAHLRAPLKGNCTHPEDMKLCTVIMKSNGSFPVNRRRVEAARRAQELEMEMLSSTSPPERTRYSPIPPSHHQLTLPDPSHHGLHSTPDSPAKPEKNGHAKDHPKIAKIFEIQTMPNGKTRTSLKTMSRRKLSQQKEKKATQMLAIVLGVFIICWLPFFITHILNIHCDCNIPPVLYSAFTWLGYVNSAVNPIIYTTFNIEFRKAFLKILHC

[1] = vs. [3H]-(R)-(+)-7-OH-DPAT, HEK293 cells stably expressing hD2R, read-out: D2R Ki ± SEM
[2] = vs. [3H]-(R)-(+)-7-OH-DPAT, HEK293 cells stably expressing hD3R, read-out: D3R Ki ± SEM
[3] = vs. [3H]-(R)-(+)-7-OH-DPAT, HEK293, read-out: hD2LR Ki ± SEM
[4] = vs. [3H]-(R)-(+)-7-OH-DPAT, HEK293, read-out: hD3R Ki ± SEM
[5] = vs. [3H]-DAMGO, HEK293 membranes, >100 = <50% inhibition at 100 μM

human D2LR, sequence (P14416 whole entry): as above
human D4.4, sequence (P21917 whole entry): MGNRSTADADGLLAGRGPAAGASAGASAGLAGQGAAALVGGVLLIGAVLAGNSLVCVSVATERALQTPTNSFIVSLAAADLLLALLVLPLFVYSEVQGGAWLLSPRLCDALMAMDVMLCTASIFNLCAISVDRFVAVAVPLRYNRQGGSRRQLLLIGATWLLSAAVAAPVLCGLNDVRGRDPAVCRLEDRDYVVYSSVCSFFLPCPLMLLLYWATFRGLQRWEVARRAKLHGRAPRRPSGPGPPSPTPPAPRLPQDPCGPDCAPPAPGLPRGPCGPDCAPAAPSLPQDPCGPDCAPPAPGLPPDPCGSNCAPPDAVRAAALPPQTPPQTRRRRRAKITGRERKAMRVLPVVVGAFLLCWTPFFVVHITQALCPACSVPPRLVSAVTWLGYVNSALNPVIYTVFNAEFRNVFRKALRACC

Structure (SMILES) | Ki (human D2LR; [1]) [nM] | D2R/D3R (human D3R; vs. [3H]-(R)-(+)-7-OH-DPAT) | Ki (human D3R; [2]) [nM] | further results
CCCN1CCO[C@@H]2c3cc(O)ccc3OC[C@H]21 [(+)-PD128,907, (4aR,10bR)-4-propyl-3,4,4a,10b-tetrahydro-2H,5H-chromeno[4,3-b][1,4]oxazin-9-ol, reference compound] | 20.5 ± 2.87 | 12.1 | 1.69 ± 0.0892 | Ki (human D4.4): 26.6 ± 3.97 nM; D4R/D3R (human D3R; vs. [3H]-(R)-(+)-7-OH-DPAT): 15.7
CCCN1CCO[C@@H]2c3cc(O)ccc3OC[C@H]21 [(+)-(4aR,10bR)-2, reference compound] | – | – | – | Ki (hD1R): > 100000 nM; Ki (human D2LR; [3]): 28 ± 5.59 nM; Ki (human D3R; [4]): 1.67 ± 0.257 nM; Ki (hμOR; [5]): 36600 ± 19800 nM
CCCN1CC(c2ccc(N)nc2)OC[C@@H]1C (stereo partly shown) [AB03-02, reference compound] | – | 9.41 | 185 ± 20.5 | Ki (human D4.4): 292 ± 22.2 nM; Ki (human D2LR; [3]): 1740 ± 348 nM; D4R/D3R (human D3R; vs. [3H]-(R)-(+)-7-OH-DPAT): 1.58
C[C@H]1CO[C@@H](c2ccc(N)nc2)CN1CC(O)CCNC(=O)c1cc2ccccc2[nH]1 (stereo partly shown) [FOB02-67] | 1010 ± 162 | – | 423 ± 164 | Ki (hμOR; [5]): 739 ± 70.1 nM
C[C@H]1CO[C@@H](c2ccc(N)nc2)CN1CC1CC1CNC(=O)c1cc2ccccc2[nH]1 (stereo partly drawn) [trans-AB05-27B, trans-N-((2-(((2S,5S)-2-(6-aminopyridin-3-yl)-5-methylmorpholino)methyl)cyclopropyl)methyl)-1H-indole-2-carboxamide] | 707 ± 19.8 | 1.75 | 404 ± 34 | Ki (human D3R; vs. [3H]-(R)-(+)-7-OH-DPAT, HEK293 cells stably expressing hD3R, listed as AB05-27B, read-out: D3R Ki ± SEM): 404 nM
O=C(NCCCCNC1COc2ccc(O)cc2C1=O)c1cc2ccccc2[nH]1 (single isomer, unassigned) [SLC02-16B, N-(4-((6-hydroxy-4-oxochroman-3-yl)amino)butyl)-1H-indole-2-carboxamide] | 1430 | 0.808 | 1770 | –
CCCN1CCO[C@@H]2c3cc(OCCCCNC(=O)c4nc5ccccc5s4)ccc3OC[C@H]21 [SLC01-35, N-(4-(((4aR,10bR)-4-propyl-3,4,4a,10b-tetrahydro-2H,5H-chromeno[4,3-b][1,4]oxazin-9-yl)oxy)butyl)benzo[d]thiazole-2-carboxamide] | 5510 | 4.14 | 1330 | –
CCCN1CCO[C@@H]2c3cc(OCCCCNC(=O)c4ccc5c(c4)Cc4ccccc4-5)ccc3OC[C@H]21 [SLC01-24, N-(4-(((4aR,10bR)-4-propyl-3,4,4a,10b-tetrahydro-2H,5H-chromeno[4,3-b][1,4]oxazin-9-yl)oxy)butyl)-9H-fluorene-2-carboxamide] | 6710 | 8.33 | 806 ± 185 | –
C[C@H]1CO[C@@H](c2ccc(N)nc2)CN1CC1CC1CNC(=O)c1cc2ccccc2[nH]1 (stereo partly drawn) [trans-AB05-27A, trans-N-((2-(((2S,5S)-2-(6-aminopyridin-3-yl)-5-methylmorpholino)methyl)cyclopropyl)methyl)-1H-indole-2-carboxamide] | 216 ± 32.6 | 0.182 | 1190 | Ki (human D2LR; vs. [3H]-(R)-(+)-7-OH-DPAT, HEK293 cells stably expressing hD2R, listed as AB05-27A, read-out: D2R Ki ± SEM): 216 nM
C[C@H]1CO[C@H](c2ccc(N)nc2)CN1C/C=C/COc1ccc2c(c1)NC(=O)CC2 [FOB01-42, 7-(((E)-4-((2R,5S)-2-(6-aminopyridin-3-yl)-5-methylmorpholino)but-2-en-1-yl)oxy)-3,4-dihydroquinolin-2(1H)-one] | 21100 | 0.289 | 73000 | –
C[C@H]1CO[C@@H](c2ccc(N)nc2)CN1C/C=C1\CCC(CNC(=O)c2cc3ccccc3[nH]2)C1 (stereo partly shown) [FOB04-02] | 55.9 ± 4.78 | – | 7.41 ± 0.323 | Ki (hD3R): 104 ± 7.65 nM; Ki (hD2LR): 7920 ± 772 nM
C[C@H]1CO[C@H](c2ccc(N)nc2)CN1CC1CC1CNC(=O)c1cc2ccccc2[nH]1 (stereo partly drawn) [cis-FOB01-60A, cis-N-((2-(((2R,5S)-2-(6-aminopyridin-3-yl)-5-methylmorpholino)methyl)cyclopropyl)methyl)-1H-indole-2-carboxamide] | 11300 | 0.431 | 26200 | –
C[C@H]1CO[C@@H](c2ccc(N)nc2)CN1CCn1cc(CNC(=O)c2cc3ccccc3[nH]2)nn1 [AB08-03, N-((1-(2-((2S,5S)-2-(6-aminopyridin-3-yl)-5-methylmorpholino)ethyl)-1H-1,2,3-triazol-4-yl)methyl)-1H-indole-2-carboxamide] | – | – | – | Ki (hD3R): 2780 ± 1020 nM; Ki (hD2LR): 32300 ± 12700 nM
C[C@H]1COC(c2ccc(N)nc2)CN1CCCCOc1ccc2c(c1)NC(=O)CC2 (stereo partly drawn) [AB04-35, 7-(4-((5S)-2-(6-aminopyridin-3-yl)-5-methylmorpholino)butoxy)-3,4-dihydroquinolin-2(1H)-one] | 113 ± 22.7 | 0.653 | 173 ± 48.2 | Ki (human D4.4): 3220 nM; D4R/D3R (human D3R; vs. [3H]-(R)-(+)-7-OH-DPAT): 18.6
C[C@H]1CO[C@@H](c2ccc(N)nc2)CN1CC(=O)N1CCC(CNC(=O)c2cc3ccccc3[nH]2)C1 (stereo partly drawn) [AB07-80, N-((1-(2-((2S,5S)-2-(6-aminopyridin-3-yl)-5-methylmorpholino)acetyl)pyrrolidin-3-yl)methyl)-1H-indole-2-carboxamide] | 1840 | – | 2010 | Ki (hD3R): 2410 ± 287 nM; Ki (hD2LR): 7930 ± 1190 nM
O=C1CCc2ccc(OCCCCN3CCO[C@@H]4c5cc(O)ccc5OC[C@H]43)cc2N1 [SLC02-11, 7-(4-((4aR,10bR)-9-hydroxy-2,3,4a,10b-tetrahydro-4H,5H-chromeno[4,3-b][1,4]oxazin-4-yl)butoxy)-3,4-dihydroquinolin-2(1H)-one] | 6260 | 0.554 | 11300 | –
O=C(NCCCCN1CCOC2c3cc(O)ccc3OC[C@@H]21)c1cc2ccccc2[nH]1 (stereo in doubt) [rel-cis-12] | – | – | – | Ki (hD1R): > 100000 nM; Ki (human D2LR; [3]): 9420 ± 3440 nM; Ki (human D3R; [4]): 13800 nM; Ki (hμOR): 12300 ± 2880 nM
CCCN1CCO[C@H]2c3cc(O)ccc3OC[C@@H]21 [(−)-(4aS,10bS)-2, reference compound] | – | – | – | Ki (hD1R): > 100000 nM; Ki (human D2LR; [3]): 7580 ± 2620 nM; loss of D3R affinity relative to (+)-(4aR,10bR)-2 (human D3R; vs. [3H]-(R)-(+)-7-OH-DPAT): > 3000 fold; Ki (human D3R; [4]): 5620 nM; Ki (hμOR; [5]): 77900 ± 41400 nM
C[C@H]1CO[C@@H](c2ccc(N)nc2)CN1 [AB04-85B, 5-((2S,5S)-5-methylmorpholin-2-yl)pyridin-2-amine] | 2340 | 5.52 | 424 ± 32.4 | –
C[C@H]1CO[C@H](c2ccc(N)nc2)CN1 [AB04-85A, 5-((2R,5S)-5-methylmorpholin-2-yl)pyridin-2-amine] | 7100 | 4.67 | 1520 | –
C[C@H]1CO[C@@H](c2ccc(N)nc2)CN1C/C=C/COc1ccc2c(c1)NC(=O)CC2 [FOB01-44, 7-(((E)-4-((2S,5S)-2-(6-aminopyridin-3-yl)-5-methylmorpholino)but-2-en-1-yl)oxy)-3,4-dihydroquinolin-2(1H)-one] | 341 ± 27.6 | 0.297 | 1150 | –
CCCN(CCC)c1ccc(C2CN(CCC)C(C)CO2)cn1 (stereo not shown) [AB03-14] | > 5000 | – | > 10000 | –
CCCN(CCC)c1ccc(C2CN(CCC)[C@@H](C)CO2)cn1 (stereo partly drawn) [AB04-52, 5-((5S)-5-methyl-4-propylmorpholin-2-yl)-N,N-dipropylpyridin-2-amine] | 8240 | 0.391 | 21100 | Ki (human D4.4): > 100000 nM; D4R/D3R (human D3R; vs. [3H]-(R)-(+)-7-OH-DPAT): >4.74
CCCN1CCO[C@@H]2c3cc(O)ccc3OC[C@@H]21 (racemic) [(±)-cis-2, reference compound] | – | – | – | Ki (human D2LR): > 10000 nM; Ki (human D3R): > 10000 nM
CCCN1CCO[C@@H]2c3cc(OCCCCOc4ccc5c(c4)NC(=O)CC5)ccc3OC[C@H]21 [AB04-38, 7-(4-(((4aR,10bR)-4-propyl-3,4,4a,10b-tetrahydro-2H,5H-chromeno[4,3-b][1,4]oxazin-9-yl)oxy)butoxy)-3,4-dihydroquinolin-2(1H)-one] | 10100 | 6.35 | 1590 | –
C[C@H]1CO[C@@H](c2ccc(N)nc2)CN1CC1CC1CNC(=O)c1cc2ccccc2[nH]1 (stereo partly drawn) [cis-FOB01-59A, cis-N-((2-(((2S,5S)-2-(6-aminopyridin-3-yl)-5-methylmorpholino)methyl)cyclopropyl)methyl)-1H-indole-2-carboxamide] | 1070 | 0.498 | 2150 | –
Oc1ccc2c(c1)[C@H]1OCCN[C@@H]1CO2 [AB04-75, (4aR,10bR)-3,4,4a,10b-tetrahydro-2H,5H-chromeno[4,3-b][1,4]oxazin-9-ol, reference compound] | 4250 | 10.5 | 403 ± 5.55 | –

Reference: patent US12479838B2, “D3 receptor agonist compounds; methods of preparation; intermediates thereof; and methods of use thereof” (THE UNITED STATES OF AMERICA, AS REPRESENTED BY THE …, priority 2019, dated 2025)
